From patent publication US20240018125A1, “CYCLIC ISOTHIOUREA DERIVATIVES AS CXCR4 MODULATORS” (ERMIUM THERAPEUTICS, priority 2020, published 2024)
Structures can show the parent of a compound that is named as a salt.

Assays:
[1] = molecular target: T1, human CXCR4 (hCXCR4) receptor (Homo sapiens, UniProt P61073); experiment: BRET assay of antagonist activity on the CXCR4-CXCL12 signaling pathway (Gαi2 recruitment) in HEK-293 T cells; format: cell-based; conditions: HEK-293 T cells with hCXCR4, Gαi2 and BRET biosensors; 10 min with compound, then EC80 CXCL12
T1 construct: expressed in transfected cells; host or cells: HEK-293 T cells, transient co-transfection with polyethylenimine
Protocol: Examples of the present invention were tested for their antagonist activity on human CXCR4 (hCXCR4) receptor transiently over-expressed in HEK-293 T cells. Compounds exert antagonist activity if they decrease the action of CXCL12 on the receptor.
The specific effector (luciferase tagged: BRET donor) recruited at the membrane will be in close proximity to a plasma membrane anchor (GFP tagged: BRET acceptor) to induce a BRET signal (Hamdan et a1, 2006, Chapter 5, Current Protocols in Neuroscience).
HEK-293 T cells are maintained in Dulbecco's Modified Eagle's Medium supplemented with 10% Foetal Calf Serum, 1% Penicillin/Streptomycin at 37° C./5% CO2. Cells are co-transfected using polyethylenimine (25 kDa linear) with several DNA plasmids encoding: hCXCR4; Gai2; an intracellular effector fused to luciferase (BRET donor); a plasma membrane effector fused to GFP (BRET acceptor). After transfection, cells are cultured for 48 h at 37° C./5% CO2. On the day of the assay, cells are detached using trypsin 0.05%, resuspended in assay buffer (1.8 mM CaCl2, 1 mM MgCl2, 2.7 mM KCl, 137 mM NaCl, 0.4 mM NaH2PO4, 5.5 mM D-Glucose, 11.9 mM NaHCO3, 25 mM Hepes) and seeded in 384 well plate at a density of 20,000 cells per well. Then, plates are equilibrated 3.5 h at 37° C. before adding compounds. Compounds and luciferase substrate are added to the cells using an automated device (Freedom Evo®, Tecan) and BRET readings are collected on EnVision (PerkinElmer) with specific filters (410 nm BW 80 nm, 515 nm BW 30 nm).
Cells are first incubated for 10 minutes with the compound alone. Then, cells are stimulated by an EC80 CXCL12 concentration for additional 10 minutes and luminescence is recorded. EC80 CXCL12 concentration is the concentration giving 80% of the maximal CXCL12 response. Antagonist activity is evaluated in comparison to basal signals evoked by EC80 CXCL12 alone.
For IC50 determination, a dose-response test is performed using 20 concentrations (ranging over 6 logs) of each compound. Dose-response curves are fitted using the sigmoidal dose-response (variable slope) analysis in GraphPad Prism software (GraphPad Software) and IC50 of antagonist activity is calculated. Dose-response experiments are performed in duplicate, in two independent experiments.
HEK-293 T cells were transfected to allow measuring the recruitment of Gai2 proteins involved in intracellular signaling by human CXCR4 receptor (hCXCR4) via the BRET technology. Cells were then incubated with various concentrations of examples of the invention before stimulation with an EC80 concentration of CXCL12.

[2] = tested on: peripheral blood mononuclear cells (PBMCs) from healthy donors; experiment: IFN production by R848-activated PBMCs, quantified with twINNE luciferase reporter cell line; format: cell-based, human; conditions: Homo sapiens, PBMC; read-out: IC50 of anti-inflammatory activity (IFN production by activated PBMCs)
In short: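 Healthy-donor PBMCs (4.10^6/mL, RPMI/10% FBS) were pre-treated with compound, then stimulated with R848 at 5 μg/mL for 24 h. Supernatants were put on twINNE cells, which carry luciferase under five ISREs, for 24 h, and Bright-Glo luminescence was read. IC50 values came from variable-slope dose-response fits.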

[3] = molecular target: T2, Recombinant CXCR4 receptor (Homo sapiens, UniProt P61073); experiment: G.Validation fluorescence assay of CXCR4 receptor conformational changes in lipidic micelles SB2L4 and SB3L1; format: biochemical; conditions: ligand 150 μM over basal state, 5 μM labelled CXCR4, 40 min
T2 construct: host or cells: HEK-293 T cells
Description: G.Validation® assay is […] biotech proprietary fluorescence based assay that assesses conformational changes of a receptor upon activation/inactivation. Recombinant CXCR4 receptor is produced and purified from HEK-293 T cells using […] proprietary mixes. Receptor is then reconstituted in detergent buffers containing lipids mimicking the lipidic composition of dendritic cells (DC) and macrophages (SB2L4 and SB3L1). Thereafter, the receptor is labelled with a non-modifying probe allowing the detection of the activation state and conformational change of the receptor upon addition of a ligand. Indeed, the probe emission spectra maximum wavelength (Amax) shifts according to activation/inactivation of the receptor. Thus, kinetic of activation/inactivation of the receptor can be followed by monitoring Amax shift after addition of a ligand over time. Emission spectra were registered for 40 minutes after addition of each ligand. […] Activation/inactivation kinetics were also followed using an exemplary compound of formula (I), i.e.

[4] = tested on: monocytes from healthy donors; experiment: Intracellular TNFα, IL-6 and IL-1β production by R848-activated monocytes after CXCR4 siRNA knockdown or AMD3100 block (flow cytometry); format: cell-based, human
Description: The blood from healthy donors was obtained from “Etablissement Français du Sang” (convention #19/EFS/029), Paris, France.
Peripheral blood mononuclear cells (PBMCs) were isolated by density centrifugation from peripheral blood leukocyte separation medium, lymphoprep (Stemcell Technologies, Vancouver, Canada).
Monocytes used for in vitro experiments as described in part C/D were purified by positive selection with human CD14 microbeads (Miltenyi Biotec, Bergisch Gladbach, Germany) from PBMCs.
Monocytes were cultured in RPMI 1640 (Sigma-Aldrich, St Louis, USA) containing 10% heat-inactivated Fetal Bovine Serum (FBS, Sigma-Aldrich, St Louis, USA) at 37° C./5% CO2.
PBMCs and monocytes used herein were prepared as described in part A ‘Immune cells preparation’, above. Monocytes as prepared in part C ‘In vitro knockdown using siRNA or CXCR4 antagonist treatment’ and D ‘Quantification of TNFα, IL-6 and IL1β productions’ were incubated with one exemplary compound of formula (I), i.e. […] Monocytes were analysed by flow cytometry. For intracellular TNFα, IL-6 and IL-1p labelling as described in Part D ‘Quantification of TNFα, IL-6 and IL-1β productions’, Brefeldin A (BFA) was added to the cells 30 minutes after R848 stimulation.
Isolated monocytes were seeded at 10^5 cells/100 μL in 96-well plates and incubated at 37° C.
Monocytes were then treated with small interfering RNA (siRNA) which target the chemokine receptor CXCR4 mRNA (siCXCR4) (Smart Pool, Dharmacon, Lafayette, USA), or with control siRNAs (siCTL) and coupled to a transfection agent DOTAP (Roche Applied Science, Penzberg, Germany). The mix was gently mixed and incubated at room temperature for 15 minutes. After incubation, the mix was added to cells in culture at a final concentration of 160 nM. Finally, cells were incubated at 37° C. for 24 hours.
Alternatively, monocytes were treated after seeding with the CXCR4 antagonist AMD3100 (Sigma-Aldrich, USA) at 20 μM for 1 hour.
Monocytes as treated in part C, were washed in phosphate-buffered saline (PBS) and incubated with a viability marker (Zombie Aqua, Biolegend, San Diego, USA) for 30 minutes at room temperature. After washing, cells were resuspended in PBS containing 2% FBS and 2 mM ethylenediaminetetraacetic acid (EDTA) and labelled with anti-CD14 antibody (clone REA599, Miltenyi Biotech, Bergisch Gladbach, Germany), used at 1:100. For intracellular labelling of TNFα, IL-6 and IL-1β, the “Inside Stain” kit (Miltenyi Biotec, Bergisch Gladbach, Germany) was used according to the manufacturer's protocol. Cells were fixed for 20 minutes at room temperature with 250 μL of Inside Fix solution and then labelled in 100 μL of Inside Perm solution containing anti-TNFα antibody (clone cA2), anti-IL-6 antibody (clone REA1037) or anti-IL-1p antibody (clone REA1172) at 1/500 for 30 minutes at room temperature (all from Miltenyi Biotec, Bergisch Gladbach, Germany). Data acquisition was performed on the Canto II flow cytometer using Diva software (BD Biosciences, San Jose, USA). FlowJo software was used to analyse the data.

[5] = tested on: Female Balb/c mice, pristane-induced lupus; experiment: In vivo pristane-induced lupus mouse model, anti-dsDNA antibody titers in serum by ELISA; conditions: 15 mg/kg p.o. once daily, as of week 4
Protocol: Female Balb/c mice (6 to 8 weeks, ENVIGO, Indianapolis, USA) received a single i.p. injection with 0.5 mL of pristane (Sigma-Aldrich, St Louis, USA) to induce a lupus-like disease. That same day, once daily treatment was started (10 mL/kg), either with vehicle control (PBS) i.p., with prednisolone (Sigma-Aldrich, St Louis, USA) in PBS p.o. at a dose of 15 mg/kg (positive control), or with an exemplary compound of formula (I), i.e. Example 60, at a dose of either 3 mg/kg, 10 mg/kg or 30 mg/kg in PBS i.p. After 4, 6 and 8 weeks of dosing, sample bleeds for each mouse were collected via the orbital sinus, and immediately cold processed to sera and stored (50 μl) at −80° C. until analysis. In serum, anti-dsDNA antibody titers are determined using ELISA. Optical density was measured at 450 nm (OD450) using a microplate reader. Data are reported as anti-dsDNA Ab titers (OD), mean±S.E.M. as well as the statistical significance versus pristane-induced vehicle treated group using t-tests.

[6] = tested on: 129S8 mice infected with influenza A virus H3 N2 (X31); experiment: In vivo immunomodulating effect (type 1 IFNs in BALF) in acute influenza inflammation model; set-up: species or system mouse; conditions: mouse, in vivo
[7] = AMD3100 20 μM, Example 77 10, 50 and 500 nM, R848

T1 sequence (P61073 whole entry): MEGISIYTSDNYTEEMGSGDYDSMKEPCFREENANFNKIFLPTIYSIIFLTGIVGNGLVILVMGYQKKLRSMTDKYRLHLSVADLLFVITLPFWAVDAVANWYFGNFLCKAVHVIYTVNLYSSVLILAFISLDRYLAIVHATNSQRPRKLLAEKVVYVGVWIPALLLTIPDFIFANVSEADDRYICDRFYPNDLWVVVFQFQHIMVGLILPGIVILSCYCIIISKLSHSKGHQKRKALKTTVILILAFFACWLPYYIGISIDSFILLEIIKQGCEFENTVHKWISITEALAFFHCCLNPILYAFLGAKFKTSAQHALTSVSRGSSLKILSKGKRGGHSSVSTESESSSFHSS
T2 sequence (P61073 whole entry): as above

| Compound | IC50 [1] [µM] | IC50 [2] [µM] | melting point [°C] | also measured |
| --- | --- | --- | --- | --- |
| C1=C(CSC2=NCc3ccccc3N2)N2CC(Cc3ccccc3)N=C2S1 (centres unmarked) [Example 65, 6-benzyl-3-(((3,4-dihydroquinazolin-2-yl)thio)methyl)-5,6-dihydroimidazo[2,1-b]thiazole dihydrochloride] | ≥ 15 | ≤ 10 |  |  |
| NC[C@H](O)c1ccc(O)c(O)c1 [Norepinephrine] |  |  |  | CXCR4 structural activation/inactivation, Amax shift in fluorescence [3]: did not show any significant effect |
| c1ccc(CC2CN=C(SCCCc3ccncc3)N2)cc1 (centres unmarked) [Example 55, 4-(3-((5-benzyl-4,5-dihydro-1H-imidazol-2-yl)thio)propyl)pyridine dihydrochloride] | ≥ 15 | 10 to 32 |  |  |
| Cl.c1ccc2c(c1)CN=C(SCCC1CCCC1)N2 [Example 197, 2-((2-cyclopentylethyl)thio)-1,4-dihydroquinazoline hydrochloride] |  | 10 to 32 | 42 to 50 |  |
| Cc1ccc(OCC(O)C(C)NC(C)C)c2c1CCC2 (centres unmarked) [ICI 118 551] |  |  |  | CXCR4 structural activation/inactivation, Amax shift in fluorescence [3]: did not show any significant effect |
| Cl.c1ccc(CC2CN=C(SCc3cn4cccnc4n3)N2)cc1 (centres unmarked) [Example 51, 2-(((5-benzyl-4,5-dihydro-1H-imidazol-2-yl)thio)methyl)imidazo[1,2-a]pyrimidine hydrochloride] |  | > 32 | 100 to 115 |  |
| Clc1ccc2c(c1)CN1C(CSC3=NCc4ccccc4N3)=CSC1=N2 [Example 19, 7-chloro-3-(((1,4-dihydroquinazolin-2-yl)thio)methyl)-5H-thiazolo[2,3-b]quinazoline dihydrochloride] | ≥ 15 | ≤ 10 |  |  |
| c1ccc2c(c1)CN=C(SCCN1CCCC1)N2 [Example 77, 2-((2-(pyrrolidin-1-yl)ethyl)thio)-1,4-dihydroquinazoline dihydrochloride] | ≥ 15 | ≤ 10 |  | IL-1β production by activated monocytes in the presence of Example 77 with CXCR4 blocked by AMD3100 [4, 7]: restored; TNFα production by activated monocytes in the presence of Example 77 with CXCR4 blocked by AMD3100 [4, 7]: restored; IL-1β production by activated monocytes in the presence of Example 77 after CXCR4 siRNA ([4]; siCXCR4 vs siCTL, Example 77 50 nM, R848 1 μg/mL, % IL-1β positive cells): restored; IL-6 production by activated monocytes in the presence of Example 77 after CXCR4 siRNA ([4]; siCXCR4 vs siCTL, Example 77 50 nM, R848 1 μg/mL, % IL-6 positive cells): restored; TNFα production by activated monocytes in the presence of Example 77 after CXCR4 siRNA ([4]; siCXCR4 vs siCTL, Example 77 50 nM, R848 1 μg/mL, % TNFα positive cells): restored |
| C[C@]12C=CC(=O)C=C1CC[C@@H]1[C@@H]2[C@@H](O)C[C@@]2(C)[C@H]1CC[C@]2(O)C(=O)CO [prednisolone, reference compound] |  |  |  | anti-dsDNA Ab titers in serum vs vehicle-treated pristane-induced mice [5]: significantly reduced |
| C1=C(CSC2=NCc3cccnc3N2)N2Cc3ccccc3CN=C2S1.Cl.Cl.Cl [Example 31, 3-(((1,4-dihydropyrido[2,3-d]pyrimidin-2-yl)thio)methyl)-5,10-dihydrobenzo[e]thiazolo[3,2-a][1,3]diazepine trihydrochloride] |  | ≤ 10 | 194 to 203 |  |
| CC(C)Cc1ccc(C(C)C(=O)O)cc1 (centres unmarked) [ibuprofen, reference compound] |  |  |  | concentration of IFNα in BALF vs vehicle-treated infected mice [6]: significantly lower; concentration of IFNβ in BALF vs vehicle-treated infected mice [6]: significantly lower; concentration of IFNλ2/3 in BALF vs vehicle-treated infected mice [6]: significantly lower |
| Cl.c1ccc2c(c1)CN=C(SCCN1CCc3ccccc31)N2 [Example 115, 2-((2-(indolin-1-yl)ethyl)thio)-1,4-dihydroquinazoline hydrochloride] |  | 10 to 32 | 82 to 88 |  |
| Cl.c1ccc2c(c1)CN=C(SCCCN1CCCC1)N2 [Example 136, 2-((3-(pyrrolidin-1-yl)propyl)thio)-1,4-dihydroquinazoline dihydrochloride] |  | ≤ 10 | 178 to 182 |  |
